Assay results as given in patent publication US20190134005A1 (BioMarin Pharmaceutical Inc., priority 2016, published 2019).

molecular target: T1, human CGT (Homo sapiens, UniProt Q16880); test: Assay 1: CGT Enzymatic Assay (RapidFire/MS/MS, 0.01% Tween 80); assay type: biochemical; conditions: Table 1, Compounds of Formula (I) and Formula (II); CGT enzymatic assay; read-out: IC50
T1 sequence (Q16880 21-541): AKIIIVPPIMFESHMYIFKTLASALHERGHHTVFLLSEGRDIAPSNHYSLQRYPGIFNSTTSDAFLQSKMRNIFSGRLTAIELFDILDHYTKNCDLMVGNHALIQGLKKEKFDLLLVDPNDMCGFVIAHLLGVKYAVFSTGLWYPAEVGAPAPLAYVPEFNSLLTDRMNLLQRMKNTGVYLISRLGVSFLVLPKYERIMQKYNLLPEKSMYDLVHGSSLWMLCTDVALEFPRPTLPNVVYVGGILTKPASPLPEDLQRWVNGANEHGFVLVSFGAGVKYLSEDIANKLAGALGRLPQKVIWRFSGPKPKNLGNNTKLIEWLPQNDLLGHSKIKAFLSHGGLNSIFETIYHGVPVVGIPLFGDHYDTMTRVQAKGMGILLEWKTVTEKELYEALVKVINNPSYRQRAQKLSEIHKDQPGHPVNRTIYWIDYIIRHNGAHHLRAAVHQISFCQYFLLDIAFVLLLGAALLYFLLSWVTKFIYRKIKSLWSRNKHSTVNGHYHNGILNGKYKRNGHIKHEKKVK

| SMILES | IC50 |
| --- | --- |
| C[C@]1(c2ccccc2)N(c2ccc(Cl)cc2)C(=O)N(c2ccc(Cl)cc2)[C@@]1(O)c1ccccc1 [Compound 121-4, (4R,5R)-1,3-bis(4-chlorophenyl)-4-hydroxy-5-methyl-4,5-diphenylimidazolidin-2-one] | 1 to 10 µM |
| CCCC1N(c2ccc(Cl)cc2)C(=O)N(c2ccc(Cl)cc2)C1(O)CCC (centres unmarked) [Compound 122, 1,3-bis(4-chlorophenyl)-4-hydroxy-4,5-dipropylimidazolidin-2-one] | 10 to 50 µM |
| CC[C@@H]1N(c2ccc(F)cc2)C(=O)N(c2ccc(F)cc2)C1(O)c1cccc(C#N)c1 (stereo partly drawn) [Compound 123-1, 3-((5S)-5-ethyl-1,3-bis(4-fluorophenyl)-4-hydroxy-2-oxoimidazolidin-4-yl)benzonitrile] | 1 to 10 µM |
| CN(C)c1cccc(C2(O)CN(c3ccc(Br)cc3)C(=O)N2c2ccc(Br)cc2)c1 (centres unmarked) [Compound 125, 1,3-bis(4-bromophenyl)-4-(3-(dimethylamino)phenyl)-4-hydroxyimidazolidin-2-one] | > 50 µM |
| COc1cccc(C2(C)C(O)N(c3ccc(Br)cc3)C(=O)N2c2ccc(Br)cc2)c1 (centres unmarked) [Compound 126, 1,3-bis(4-bromophenyl)-5-hydroxy-4-(3-methoxyphenyl)-4-methylimidazolidin-2-one] | 1 to 10 µM |
| CC(C)(C)c1cccc(C2(O)CN(c3ccc(Br)cc3)C(=O)N2c2ccc(Br)cc2)c1 (centres unmarked) [Compound 127, 1,3-bis(4-bromophenyl)-4-(3-(tert-butyl)phenyl)-4-hydroxyimidazolidin-2-one] | 10 to 50 µM |
| CC(C)(C)c1cccc(C2(O)CN(c3ccc(Cl)cc3)C(=O)N2c2ccc(Cl)cc2)c1 (centres unmarked) [Compound 128, 4-(3-(tert-butyl)phenyl)-1,3-bis(4-chlorophenyl)-4-hydroxyimidazolidin-2-one] | 10 to 50 µM |
| CCC1N(c2ccc(F)cc2)C(=O)N(c2ccc(F)cc2)C1(O)c1cccc(C(F)(F)F)c1 (centres unmarked) [Compound 139, 5-ethyl-1,3-bis(4-fluorophenyl)-4-hydroxy-4-(3-(trifluoromethyl)phenyl)imidazolidin-2-one] | 1 to 10 µM |
| CC1N(c2ccc(Cl)cc2)C(=O)N(c2ccc(Cl)cc2)C1(O)c1cccc(C(C)(C)O)c1 (centres unmarked) [Compound 140, 1,3-bis(4-chlorophenyl)-4-hydroxy-4-(3-(2-hydroxypropan-2-yl)phenyl)-5-methylimidazolidin-2-one] | 1 to 10 µM |
| C[C@@H]1N(c2ccc(Cl)cc2)C(=O)N(c2ccc(Cl)cc2)C1(O)c1cccc(C(C)(C)O)c1 (stereo partly drawn) [Compound 140-1, (5S)-1,3-bis(4-chlorophenyl)-4-hydroxy-4-(3-(2-hydroxypropan-2-yl)phenyl)-5-methylimidazolidin-2-one] | > 50 µM |
| C[C@H]1N(c2ccc(Cl)cc2)C(=O)N(c2ccc(Cl)cc2)C1(O)c1cccc(C(C)(C)O)c1 (stereo partly drawn) [Compound 140-2, (5R)-1,3-bis(4-chlorophenyl)-4-hydroxy-4-(3-(2-hydroxypropan-2-yl)phenyl)-5-methylimidazolidin-2-one] | 1 to 10 µM |
| O=C1N(c2ccc(Br)cc2)C(=O)C(O)(c2ccccc2)N1c1ccc(Br)cc1 (centres unmarked) [Compound 141, 1,3-bis(4-bromophenyl)-5-hydroxy-5-phenylimidazolidine-2,4-dione] | 10 to 50 µM |
| CCC1(O)C(=O)N(c2ccc(Br)cc2)C(=O)N1c1ccc(Br)cc1 (centres unmarked) [Compound 143, 1,3-bis(4-bromophenyl)-5-ethyl-5-hydroxyimidazolidine-2,4-dione] | 10 to 50 µM |
| COc1ccc(C2(O)C(=O)N(c3ccc(Br)cc3)C(=O)N2c2ccc(Br)cc2)cc1 (centres unmarked) [Compound 144, 1,3-bis(4-bromophenyl)-5-hydroxy-5-(4-methoxyphenyl)imidazolidine-2,4-dione] | 50 to 100 µM |
| CC(C)c1ccc(N2C(=O)N(c3ccc(C(C)C)cc3)C(O)(c3ccccc3)C2=O)cc1 (centres unmarked) [Compound 145, 5-hydroxy-1,3-bis(4-isopropylphenyl)-5-phenylimidazolidine-2,4-dione] | 50 to 100 µM |
| O=C1N(c2ccc(Cl)cc2)C(=O)C(O)(c2ccccc2)N1c1ccc(Cl)cc1 (centres unmarked) [Compound 147, 1,3-bis(4-chlorophenyl)-5-hydroxy-5-phenylimidazolidine-2,4-dione] | 10 to 50 µM |
| O=C1N(c2ccc(Br)cc2)C(=O)C(O)(c2ccc3ccccc3c2)N1c1ccc(Br)cc1 (centres unmarked) [Compound 148, 1,3-bis(4-bromophenyl)-5-hydroxy-5-(naphthalen-2-yl)imidazolidine-2,4-dione] | 50 to 100 µM |
| CC1(c2cccc(Cl)c2)C(O)N(c2ccc(Cl)cc2)C(=O)N1c1ccc(Cl)cc1 (centres unmarked) [Compound 149, 4-(3-chlorophenyl)-1,3-bis(4-chlorophenyl)-5-hydroxy-4-methylimidazolidin-2-one] | < 1 µM |
| O=C1N(c2ccc(Cl)cc2)C2(COC2)C(O)(c2cccc(OC(F)(F)F)c2)N1c1ccc(Cl)cc1 (centres unmarked) [Compound 150, 5,7-bis(4-chlorophenyl)-8-hydroxy-8-(3-(trifluoromethoxy)phenyl)-2-oxa-5,7-diazaspiro[3.4]octan-6-one] | < 1 µM |

Now from value to compound:

| IC50 | SMILES |
| --- | --- |
| < 1 µM | CC[C@H]1N(c2ccc(F)cc2)C(=O)N(c2ccc(F)cc2)C1(O)c1cccc(C#N)c1 (stereo partly drawn) [Compound 123-2, 3-((5R)-5-ethyl-1,3-bis(4-fluorophenyl)-4-hydroxy-2-oxoimidazolidin-4-yl)benzonitrile] |
| < 1 µM | CC(=O)c1cccc(C2(O)C(C)N(c3ccc(Cl)cc3)C(=O)N2c2ccc(Cl)cc2)c1 (centres unmarked) [Compound 124, 4-(3-acetylphenyl)-1,3-bis(4-chlorophenyl)-4-hydroxy-5-methylimidazolidin-2-one] |
| < 1 µM | CC1N(c2ccc(Cl)cc2)C(=O)N(c2ccc(Cl)cc2)C1(O)c1cccc(OC(F)(F)F)c1 (centres unmarked) [Compound 129, 1,3-bis(4-chlorophenyl)-4-hydroxy-5-methyl-4-(3-(trifluoromethoxy)phenyl)imidazolidin-2-one] |
| < 1 µM | C[C@H]1N(c2ccc(Cl)cc2)C(=O)N(c2ccc(Cl)cc2)C1(O)c1cccc(OC(F)(F)F)c1 (stereo partly drawn) [Compound 129-2, (5R)-1,3-bis(4-chlorophenyl)-4-hydroxy-5-methyl-4-(3-(trifluoromethoxy)phenyl)imidazolidin-2-one] |
| < 1 µM | CC1N(c2ccc(F)cc2)C(=O)N(c2ccc(F)cc2)C1(O)c1cccc(OC(F)(F)F)c1 (centres unmarked) [Compound 130, 1,3-bis(4-fluorophenyl)-4-hydroxy-5-methyl-4-(3-(trifluoromethoxy)phenyl)imidazolidin-2-one] |
| < 1 µM | C[C@@H]1N(c2ccc(F)cc2)C(=O)N(c2ccc(F)cc2)C1(O)c1cccc(OC(F)(F)F)c1 (stereo partly drawn) [Compound 130-1, (5S)-1,3-bis(4-fluorophenyl)-4-hydroxy-5-methyl-4-(3-(trifluoromethoxy)phenyl)imidazolidin-2-one] |
| < 1 µM | C[C@H]1N(c2ccc(F)cc2)C(=O)N(c2ccc(F)cc2)C1(O)c1cccc(OC(F)(F)F)c1 (stereo partly drawn) [Compound 130-2, (5R)-1,3-bis(4-fluorophenyl)-4-hydroxy-5-methyl-4-(3-(trifluoromethoxy)phenyl)imidazolidin-2-one] |
| < 1 µM | CCC1N(c2ccc(F)cc2)C(=O)N(c2ccc(F)cc2)C1(O)c1cccc(OC(F)(F)F)c1 (centres unmarked) [Compound 131, 5-ethyl-1,3-bis(4-fluorophenyl)-4-hydroxy-4-(3-(trifluoromethoxy)phenyl)imidazolidin-2-one] |
| < 1 µM | N#Cc1cccc(C2(O)C(CC3CC3)N(c3ccc(Cl)cc3)C(=O)N2c2ccc(Cl)cc2)c1 (centres unmarked) [Compound 132, 3-(1,3-bis(4-chlorophenyl)-5-(cyclopropylmethyl)-4-hydroxy-2-oxoimidazolidin-4-yl)benzonitrile] |
| < 1 µM | CC1(C)N(c2ccc(Cl)cc2)C(=O)N(c2ccc(Cl)cc2)C1(O)c1cccc(OC(F)(F)F)c1 (centres unmarked) [Compound 133, 1,3-bis(4-chlorophenyl)-4-hydroxy-5,5-dimethyl-4-(3-(trifluoromethoxy)phenyl)imidazolidin-2-one] |
| < 1 µM | CC1(C)N(c2ccc(Cl)cc2)C(=O)N(c2ccc(Cl)cc2)C1(O)c1cccc(C(F)(F)F)c1 (centres unmarked) [Compound 134, 1,3-bis(4-chlorophenyl)-4-hydroxy-5,5-dimethyl-4-(3-(trifluoromethyl)phenyl)imidazolidin-2-one] |
| < 1 µM | N#Cc1cccc(C2(O)N(c3ccc(Cl)cc3)C(=O)N(c3ccc(Cl)cc3)C23CCCC3)c1 (centres unmarked) [Compound 135, 3-(1,3-bis(4-chlorophenyl)-4-hydroxy-2-oxo-1,3-diazaspiro[4.4]nonan-4-yl)benzonitrile] |
| < 1 µM | CC(=O)c1cccc(C2(O)[C@@H](C)N(c3ccc(Cl)cc3)C(=O)N2c2ccc(Cl)cc2)c1 (stereo partly drawn) [Compound 136-2, (5R)-4-(3-acetylphenyl)-1,3-bis(4-chlorophenyl)-4-hydroxy-5-methylimidazolidin-2-one] |
| < 1 µM | CC(O)c1cccc(C2(O)C(C)N(c3ccc(Cl)cc3)C(=O)N2c2ccc(Cl)cc2)c1 (centres unmarked) [Compound 137, 1,3-bis(4-chlorophenyl)-4-hydroxy-4-(3-(1-hydroxyethyl)phenyl)-5-methylimidazolidin-2-one] |
| < 1 µM | CC1(C)N(c2ccc(Cl)cc2)C(=O)N(c2ccc(Cl)cc2)C1(O)c1cccc(C#N)c1 (centres unmarked) [Compound 138, 3-(1,3-bis(4-chlorophenyl)-4-hydroxy-5,5-dimethyl-2-oxoimidazolidin-4-yl)benzonitrile] |
| < 1 µM | O=C1N(c2ccc(Cl)cc2)C2(CCCC2)C(O)(c2cccc(OC(F)(F)F)c2)N1c1ccc(Cl)cc1 (centres unmarked) [Compound 146, 1,3-bis(4-chlorophenyl)-4-hydroxy-4-(3-(trifluoromethoxy)phenyl)-1,3-diazaspiro[4.4]nonan-2-one] |
